Experimental data: ChEMBL document CHEMBL4049463, “Repurposing Suzuki Coupling Reagents as a Directed Fragment Library Targeting Serine Hydrolases and Related Enzymes” (J Med Chem, 2017)

The compounds below were run against Autotaxin (Mus musculus, UniProt Q9R1E6) (assay: Inhibition of mouse ATX using TG-mTMP as substrate after 2 hrs by fluorometric analysis).
Work on `OB(O)c1ccccc1CCN1CCN(c2nc(O)c(Cc3ccc(Cl)c(Cl)c3)s2)CC1` yielded an IC50 of 0.631 µM.
`OB(O)c1cccc(CCN2CCN(c3nc(O)c(Cc4ccc(Cl)c(Cl)c4)s3)CC2)c1` showed an IC50 of 0.0126 µM.
`OB(O)c1ccc(CCCN2CCC(c3nc(O)c(Cc4ccc(Cl)c(Cl)c4)s3)CC2)cc1` gave an IC50 of 0.02 µM.

Each compound was assayed against Autotaxin (Mus musculus) (UniProt Q9R1E6).
Compound `COc1cc(COc2ccc(B(O)O)cc2Cl)cc(OC)c1` has an IC50 of 0.316 µM.
`N#CCc1cccc(B(O)O)c1` gave an IC50 of 5.01 µM.
For `OB(O)c1ccc2cc[nH]c2c1`, the IC50 was 2 µM.
Work on `CS(=O)(=O)c1ccc(B(O)O)cc1` yielded an IC50 of 5.01 µM.
For `Nc1cccc(-c2nnc[nH]2)c1`, the IC50 was 251 µM.
`N#C/C=C/c1cccc(B(O)O)c1` was tested, and the IC50 was 1.58 µM.
Compound `O=C(O)c1ccc2cc[nH]c2c1` has an IC50 of 794 µM.
In the case of `OB(O)c1cccc(O)c1`, the IC50 is reported as 10 µM.
`OB(O)c1ccc2nonc2c1` was tested, and the IC50 was 10 µM.
With `COCCc1ccc(OCc2cccc(B(O)O)c2)cc1` the IC50 was 0.501 µM.
`OCc1cccc(B(O)O)c1` showed an IC50 of 12.6 µM.
`Oc1ccc(-n2ccnc2)cc1` showed an IC50 of 501 µM.
`NCc1cccc(O)c1` was tested, and the IC50 was 1260 µM.
`N#Cc1ccc(B(O)O)cc1` was tested, and the IC50 was 5.01 µM.
Compound `N#Cc1cccc(B(O)O)c1` has an IC50 of 20 µM.
`COc1cccc(B(O)O)c1` gave an IC50 of 20 µM.
Work on `Oc1ccc2nonc2c1` yielded an IC50 of 200 µM.
With `OB(O)c1ccccc1OCc1cccc(Cl)c1` the IC50 was 1 µM.
Compound `OB(O)c1ccccc1` [PHENYLBORONIC ACID] has an IC50 of 10 µM.
`COc1ccccc1B(O)O` gave an IC50 of 3.98 µM.
In the case of `OB(O)c1ccc(O)cc1`, the IC50 is reported as 10 µM.
`OB(O)c1ccc(Cl)cc1` was tested, and the IC50 was 3.16 µM.
In the case of `COc1ccc(B(O)O)cc1`, the IC50 is reported as 5.01 µM.
Work on `CS(=O)(=O)c1ccc(O)cc1` yielded an IC50 of 631 µM.
